Experimental data from patent publication US20080221114A1, “2-(Cyclic Aminocarbonyl) Indoline Derivative and Medicinal Composition Containing the Same” (priority 2005, published 2008).
pIC50: −log10 of the molar value.

target: T1, mitochondrial benzodiazepine receptor (MBR) (Rattus norvegicus, UniProt P16257); assay: Binding assay of mitochondrial benzodiazepine receptor (MBR), [3H]4'-chlorodiazepam (Ro5-4864), rat kidney membrane-preparation; conditions: rat kidney membranes, [3H]4'-chlorodiazepam 0.5 nM, 0° C. for 150 minutes
T1 construct: from tissue; host or cells: kidney of male Wistar rats (crude membrane preparation)
Procedure: The binding assay of central-type benzodiazepine receptor (CBR) and the preparation of receptor membrane-preparation were carried out according to the partially modified method of Braestrup, C. et al. [see; Br. J. Psychiatry, 133, 249-260 (1978)] with a minor modification; the binding assay of mitochondrial benzodiazepine receptor (MBR) and the preparation of receptor membrane-preparation were carried out according to the method of Schoemaker, H [see; J. Pharmacol. Exp. Ther., 225, 61-69 (1983)] with a minor modification.
CBR and MBR membrane-preparations were prepared from forebrain (CBR) and kidney (MBR) of male Wistar strain rats according to the following procedure, respectively.
To the forebrain of rat, 20 volumes of ice-cold 0.32 M sucrose solution to wet-weight of the tissue (1:20, wet-weight/vol) was added and homogenized, and then the homogenate was centrifuged at 900×g for 10 minutes. The supernatant was centrifuged at 11,500×g for 20 minutes, a buffer I for the binding assay (50 mM Tris-hydrochloric acid buffer, pH 7.5) was added to the resultant precipitate, and the mixture was homogenized, and then it was centrifuged at 30,000×g for 10 minutes. The resulting precipitate was washed 3 times according to the same operation, suspended in the buffer I (1 g of wet-weight of tissue/10 ml) and used as a CBR membrane-preparation for the binding assay. The CBR membrane-preparation was stored at −80° C. until use, and on the day of the assay, it was thawed and suspended in the buffer for use. On the other hand, kidney of rat was homogenized in 20 volumes of ice-cold buffer II for the binding assay to wet-weight of the tissue (1:20, wet-weight/vol) (50 mM sodium phosphate-potassium phosphate buffer solution containing 100 mM sodium chloride, pH 7.4), and then filtrated through 4 layers of gauze, and the filtrate was centrifuged at 40,000×g for 20 minutes. The resulting precipitate was suspended in the buffer II (1 g of wet-weight of tissue/50 ml) and used as a MBR membrane-preparation for the binding assay.
As a labeled ligand and a non-labeled ligand, [^3H]flunitrazepam (final concentration: 1 nM) and diazepam (final concentration: 20 μM) were used respectively, for the CBR binding assay, and [^3H]4′-chlorodiazepam (Ro5-4864, chemical name: 7-chloro-1,3-dihydro-1-methyl-5-(4-chloro-phenyl)-2H-1,4-[…]) (final concentration: 0.5 nM) and diazepam (final concentration: 50 μM) were used respectively, for the MBR binding assay. The binding assay of CBR was carried out by incubating at 0° C. for 30 minutes, while that of MBR was at 0° C. for 150 minutes.
The receptor binding assay was carried out in the following procedure. The test compound which the concentration was known, a tritium labeled ligand, a receptor membrane-preparation and the buffer I or II for the binding assay were added to a 96-well microplate in the total volume was 0.2 ml, and when the receptor membrane-preparation was added, the reaction started. After the incubation, the labeled ligand binding to the receptor was filtrated through a filter plate (UNI FILTER-96GF/B, PerkinElmer, the U.S.) using a cell harvester (PerkinElmer, the U.S.) to stop the reaction. The filter was immediately washed 6 times with 0.3 ml of the ice-cold buffer [50 mM Tris-hydrochloric acid buffer (pH 7.7)]. After 30 μl of liquid scintillation cocktail (MICROSCINTI 20, PerkinElmer, the U.S.) was added to each well on the dried filter plate, the radioactivity was measured with a TopCount. The specific binding amount was obtained by subtracting the non-specific binding amount which was simultaneously measured in the presence of non-labeled ligand from the total binding amount. The concentration that the test compound could decrease the specific binding amount of the labeled ligand to 50% of the amount (IC50 value) was analyzed using nonlinear least-squares method.

pIC50 | Structure (SMILES)
8.14 | Cn1nc(N2c3ccccc3C[C@H]2C(=O)N2CCCC(C)(C)C2)ccc1=O [Example 152, (S)-2-[(3,3-dimethylpiperidin-1-yl)carbonyl]-1-(1-methyl-6-oxo-1,6-dihydropyridazin-3-yl)indoline]
8.62 | C[C@H]1CCCN(C(=O)[C@@H]2Cc3ccccc3N2c2ccc(=O)n(CC(=O)c3ccccc3)n2)C1 [Example 124]
8.70 | C[C@@H]1C[C@H](C)CN(C(=O)[C@@H]2Cc3ccccc3N2c2cccnc2)C1 [Example 33]
7.51 | CC1CCCCN1C(=O)[C@@H]1Cc2ccccc2N1c1ccc(=O)n(C)n1 (stereo partly drawn) [Example 145, (S)-1-(1-methyl-6-oxo-1,6-dihydropyridazin-3-yl)-2-[(2-methylpiperidin-1-yl)carbonyl]indoline]
8.40 | Cn1nc(N2c3ccccc3C[C@H]2C(=O)N2CCCCCCC2)ccc1=O [Example 119, (S)-1-(1-methyl-6-oxo-1,6-dihydropyridazin-3-yl)-2-[(1-perhydroazocinyl)carbonyl]indoline]
7.09 | CCc1ccc2c(c1)C[C@@H](C(=O)N1CCC[C@H](C)C1)N2c1cccnn1 [Example 105, (S)-5-ethyl-2-[(S)-3-methylpiperidin-1-yl]-carbonyl-1-(3-pyridazinyl)indoline]
8.88 | C[C@H]1CCCN(C(=O)[C@@H]2Cc3ccccc3N2c2ccc(=O)n(CC3CCC3)n2)C1 [Example 125]
7.17 | C[C@H]1CCCN(C(=O)C2Cc3cc(O)ccc3N2c2ccc(=O)n(C)n2)C1 (stereo partly drawn) [Example 136, 5-hydroxy-1-(1-methyl-6-oxo-1,6-dihydropyridazin-3-yl)-2-[[(S)-3-methylpiperidin-1-yl]carbonyl]indoline]
8.15 | C[C@H]1CCCN(C(=O)[C@@H]2Cc3ccccc3N2c2ccc(=S)n(C)n2)C1 [Example 139, (S)-2-[[(S)-3-methylpiperidin-1-yl]carbonyl]-1-(1-methyl-6-thioxo-1,6-dihydropyridazin-3-yl)indoline]
8.56 | Cn1nc(N2c3cccc(F)c3CC2C(=O)N2CCCCCC2)ccc1=O (stereo not shown) [Example 156, 4-fluoro-1-(1-methyl-6-oxo-1,6-dihydropyridazin-3-yl)-2-[(1-perhydroazepinyl)carbonyl]indoline]
8.37 | Cn1nc(N2c3ccccc3C[C@H]2C(=O)N2CCCCCC2)ccc1=O [Example 118, (S)-1-(1-methyl-6-oxo-1,6-dihydropyridazin-3-yl)-2-[(1-perhydroazepinyl)carbonyl]indoline]
7.21 | CC1CCCN(C(=O)[C@H]2[C@@H](O)c3ccccc3N2c2ccc(=O)n(C)n2)C1 (relative stereo) [Example 159, cis-3-hydroxy-1-(1-methyl-6-oxo-1,6-dihydropyridazin-3-yl)-2-[(3-methylpiperidin-1-yl)carbonyl]-indoline]
8.31 | CCC1CCCN(C(=O)[C@@H]2Cc3ccccc3N2c2ccc(=O)n(C)n2)C1 (stereo partly drawn) [Example 146, (S)-2-[(3-ethylpiperidin-1-yl)carbonyl]-1-(1-methyl-6-oxo-1,6-dihydropyridazin-3-yl)indoline]
8.30 | C[C@H]1CCCN(C(=O)[C@@H]2Cc3ccccc3N2c2ccc3nncn3n2)C1 [Example 154, (S)-2-[[(S)-3-methylpiperidin-1-yl]carbonyl]-1-(1,2,4-triazolo[4,3-b]pyridazin-6-yl)indoline]
8.52 | CCC(C)n1nc(N2c3ccccc3CC2C(=O)N2CCCC(C)C2)ccc1=O (stereo not shown) [Example 76]
8.36 | C[C@H]1CCCN(C(=O)C2Cc3c(F)cccc3N2c2ccc(=O)n(C)n2)C1 (single isomer, unassigned) [Example 155a]
8.42 | CCCC1CCCN(C(=O)[C@@H]2Cc3ccccc3N2c2ccc(=O)n(C)n2)C1 (stereo partly drawn) [Example 147, (S)-1-(1-methyl-6-oxo-1,6-dihydropyridazin-3-yl)-2-[(3-propylpiperidin-1-yl)carbonyl]indoline]
8.44 | CCC1CCCCN(C(=O)[C@@H]2Cc3ccccc3N2c2ccc(=O)n(C)n2)C1 (stereo partly drawn) [Example 151, (S)-2-[(3-ethylperhydroazepin-1-yl)carbonyl]-1-(1-methyl-6-oxo-1,6-dihydropyridazin-3-yl)indoline]
7.91 | CC1c2ccccc2N(c2ccc(=O)n(C)n2)C1C(=O)N1CCC[C@H](C)C1 (stereo partly drawn) [Example 141, 3-methyl-1-(1-methyl-6-oxo-1,6-dihydropyridazin-3-yl)-2-[[(S)-3-methylpiperidin-1-yl]carbonyl]indoline]
7.35 | CC1CCN(C(=O)[C@@H]2Cc3ccccc3N2c2ccc(=O)n(C)n2)C1 (stereo partly drawn) [Example 148, (S)-1-(1-methyl-6-oxo-1,6-dihydropyridazin-3-yl)-2-[(3-methylpyrrolidin-1-yl)carbonyl]indoline]
7.26 | C[C@@H]1C[C@H](C)CN(C(=O)[C@@H]2Cc3ccccc3N2c2ncccc2N)C1 [Example 55, (S)-1-(3-aminopyridin-2-yl)-2-[(cis-3,5-dimethylpiperidin-1-yl)carbonyl]indoline]
8.27 | CCC1CCN(C(=O)[C@@H]2Cc3ccccc3N2c2ccc(=O)n(C)n2)C1 (stereo partly drawn) [Example 149, (S)-2-[(3-ethylpyrrolidin-1-yl)carbonyl]-1-(1-methyl-6-oxo-1,6-dihydropyridazin-3-yl)indoline]
7.55 | Cn1nc(N2c3cc(F)ccc3CC2C(=O)N2CCCCCC2)ccc1=O (stereo not shown) [Example 158, 6-fluoro-1-(1-methyl-6-oxo-1,6-dihydropyridazin-3-yl)-2-[(1-perhydroazepinyl)carbonyl]indoline]
8.95 | C[C@H]1CCCN(C(=O)[C@@H]2Cc3ccccc3N2c2nccs2)C1 [Example 153, (S)-2-[(S)-3-methylpiperidin-1-yl]carbonyl-1-(1,3-thiazol-2-yl)indoline]
8.27 | CC1CCCCN(C(=O)[C@@H]2Cc3ccccc3N2c2ccc(=O)n(C)n2)C1 (stereo partly drawn) [Example 150, (S)-1-(1-methyl-6-oxo-1,6-dihydropyridazin-3-yl)-2-[(3-methylperhydroazepin-1-yl)carbonyl]indoline]
7.75 | Cn1nc(N2c3ccccc3CC2C(=O)N2CCCC(C(F)(F)F)C2)ccc1=O (stereo not shown) [Example 108]
8.57 | C[C@H]1CCCN(C(=O)[C@@H]2Cc3ccccc3N2c2ccc(=O)n(C3CCCC3)n2)C1 [Example 126]
8.06 | C[C@H]1CCCN(C(=O)[C@@H]2Cc3ccccc3N2c2ccc(=O)[nH]n2)C1 [Example 143, (S)-2-[[(S)-3-methylpiperidin-1-yl]carbonyl]-1-(6-oxo-1,6-dihydropyridazin-3-yl)indoline]
8.06 | C[C@H]1CCCN(C(=O)C2Cc3c(F)cccc3N2c2ccc(=O)n(C)n2)C1 (single isomer, unassigned) [Example 155b]
8.42 | CC1c2ccccc2N(c2ccc(Cl)nn2)C1C(=O)N1CCC[C@H](C)C1 (stereo partly drawn) [Example 140, 1-(6-chloropyridazin-3-yl)-3-methyl-2-[[(S)-3-methylpiperidin-1-yl]carbonyl]indoline]

tested on: not given; assay: not given; conditions: not given

melting point | Structure (SMILES)
198 to 199 °C | Cn1nc(N2c3ccccc3C[C@H]2C(=O)N2CCCCCC2)ccc1=O (hydrate or solvate) [Example 118, (S)-1-(1-methyl-6-oxo-1,6-dihydropyridazin-3-yl)-2-[(1-perhydroazepinyl)carbonyl]indoline]
221 to 223 °C | C[C@H]1CCCN(C(=O)[C@@H]2Cc3ccccc3N2c2ccc(=O)n(CC3CCC3)n2)C1 (hydrate or solvate) [Example 125]
186 to 188 °C | CCCCn1nc(N2c3ccccc3C[C@H]2C(=O)N2CCC[C@H](C)C2)ccc1=O [Example 74]
255 °C (dec.) | C[C@H]1CCCN(C(=O)[C@@H]2Cc3ccccc3N2c2ccc(=O)n(CC(=O)c3ccccc3)n2)C1 (hydrate or solvate) [Example 124]
